The values that follow are results of earlier work, collected in patent US6750249B1, “Controlled release oral preparations of esculetin and its derivatives” (priority 1998, dated 2004).

In the series the test system is glycosaminoglycan in the matrix. Conditions: stimulation of interleukin-1 and the like; Japanese Patent Application Laid-open No. 312925/1994.

Consider `Cc1cc(=O)oc2cc(O)c(O)cc12` [4-methyl esculetin], for which the “depression of a decrease in the amount of glycosaminoglycan in the matrix” value was “strongly depress a decrease in the amount of glycosaminoglycan”. Turning to `O=c1ccc2cc(O)c(O)cc2o1` [esculetin], the “depression of a decrease in the amount of glycosaminoglycan in the matrix” value is “strongly depress a decrease in the amount of glycosaminoglycan”.
